According to patent US11039618B2, “Metam salts and polysulfide soil treatment” (Tessenderlo Kerley, Inc, priority 2016, dated 2021):

System: Verticillium dahliae
Assay: Plate tests: Verticillium counts in treated greenhouse soil
Assay type: cell-based
Conditions: 20 gal./acre metam
Description: Seven days after treatment, one soil sample per replicate was taken. V. dahliae control efficacy was assessed according to the methods below. Soil mixture was dried two weeks under greenhouse conditions. The quantity of V. dahliae in the soil was/will be assessed by dry soil plating on semi-selective medium. Dry soil samples were crushed and sieved through a #20 mesh. A small portion of each sample was incubated on six NP-10 semi-selective plates with a 6-stage Impactor (Anderson Samplers Inc., Atlanta, Ga.), using stages 2 and 3. Semi-selective NP-10 medium was prepared according to Kabir et al. (2004) and incubated at 24° C. in the dark for four weeks after spreading 0.5 g of soil. After incubation, the remaining soil was be gently washed off the plates and the number of V. dahliae microsclerotia colonies were counted on each plate under a microscope. The number of microsclerotia colonies equals the quantity of V. dahliae in soil and were extrapolated to 1 g of soil.
Plate tests were performed on selected samples to determine the Verticillium counts in treated soil through Aug. 17, 2017. Plate tests were performed as described previously. The untreated control comparative sample 1 averaged 32.5 ms per gram of soil. For reasons not known, the water check comparative sample 2, with no active ingredients added, contained only 11.5 ms per gram of soil. […]

**Q.** Which Verticillium dahliae population does the source give for `CNC(=S)S` [Metam, sodium methyldithiocarbamate] here?
**A.** The Verticillium dahliae population was 3 ms per gram of soil.
